In US20260327243A1, “SPIRO-HETEROCYCLIC INHIBITORS OF KRAS G12C MUTANT PROTEINS AND USES THEREOF” (AMGEN INC., priority 2023, published 2026):

These compounds were tested against KRAS^G12C (Homo sapiens, UniProt P01116, C118A/G12C) (assay: Coupled Nucleotide Exchange Assay). Conditions: GDP-bound KRAS (aa 1-169) G12C/C118A; 2 h compound pre-incubation; SOS-mediated exchange, 30 min; cRAF binding (AlphaLISA).
Assay type: biochemical
Experimental: The KRAS^G12C coupled nucleotide exchange assay allows for the screening and profiling of KRAS^G12C antagonists/inhibitors by monitoring the binding of an effector protein (e.g., a Ras binding domain of Raf1, RBD-cRaf) to KRAS^G12C. Purified GDP-bound KRAS protein (aa 1-169), containing both G12C and C118A amino acid substitutions and an N-terminal His-tag, was pre-incubated in assay buffer (25 mM HEPES pH 7.4, 10 mM MgCl2, 0.01% Triton X-100, either with or without 0.1% BSA) with serially diluted compound for 2 h. For all subsequent steps, BSA was omitted and DTT was added to the reaction buffer at a final concentration of 1 mM. Following compound pre-incubation, purified SOS protein (aa 564-1049) and GTP (Roche 10106399001) were added to the assay wells and incubated for an additional 30 min. To determine the extent of inhibition of SOS-mediated nucleotide exchange, purified GST-tagged cRAF (aa 1-149), nickel chelate AlphaLISA acceptor beads (PerkinElmer AL108R), and AlphaScreen glutathione donor beads (PerkinElmer 6765302) were added to the assay wells and incubated for 5-30 min. The assay plates were then read on a plate reader measuring luminescence signal. Signal intensity of compound-containing wells were normalized to DMSO control, and data were analyzed using a 4-parameter logistic model to calculate IC50 values.

KRAS^G12C, sequence (P01116 1-169 isoform P01116-2 G12C/C118A): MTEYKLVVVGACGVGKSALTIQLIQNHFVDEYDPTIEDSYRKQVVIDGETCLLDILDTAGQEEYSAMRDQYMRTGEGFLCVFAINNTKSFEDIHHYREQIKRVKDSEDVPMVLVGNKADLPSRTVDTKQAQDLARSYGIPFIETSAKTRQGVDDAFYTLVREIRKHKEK

| Compound | IC50 [nM] |
| --- | --- |
| C=CC(=O)N1CCN(C2CN(c3cc(N4CCC5(CC4)OC(C)(C)c4ccccc45)nc(C(F)(F)F)c3C#N)C2)CC1 [Compound 3-040, 4-(3-(4-acryloylpiperazin-1-yl)azetidin-1-yl)-6-(3,3-dimethyl-3H-spiro[isobenzofuran-1,4′-piperidin]-1′-yl)-2-(trifluoromethyl)nicotinonitrile] | 2840 |
| C=CC(=O)N1CCN(C2CN(c3cc(N4CCC5(C=CC(C)O5)CC4)nc(C(F)(F)F)c3C#N)C2)CC1 (stereo not shown) [Compound 3-066, 4-(3-(4-acryloylpiperazin-1-yl)azetidin-1-yl)-6-(2-methyl-1-oxa-8-azaspiro[4.5]dec-3-en-8-yl)-2-(trifluoromethyl)nicotinonitrile] | 550 |
| C=CC(=O)N1CCN([C@@H]2CN(c3cc(N4CCC5(C=CCO5)CC4)nc(C(F)F)n3)[C@@H]2C)CC1 [Compound 3-012, 1-(4-((2R,3R)-1-(2-(difluorometh-yl)-6-(1-oxa-8-azaspiro[4.5]dec-3-en-8-yl)pyrimidin-4-yl)-2-methyl-azetidin-3-yl)piperazin-1-yl)prop-2-en-1-one] | 2540 |
| C=CC(=O)N1CCN(C2CN(c3cc(N4CCC5(CC4)CC5)nc(C(F)(F)F)c3C#N)C2)CC1 [Compound 3-038, 4-(3-(4-acryloylpiperazin-1-yl)azetidin-1-yl)-6-(6-azaspiro[2.5]octan-6-yl)-2-(trifluoromethyl)nicotinonitrile] | 5700 |
| C=CC(=O)N1CCN(C2CN(c3cc(N4CCC5(C=C[C@@H](C)O5)CC4)nc(C(F)(F)F)c3C#N)C2)CC1 [Compound 3-068-1, (R)-4-(3-(4-acryloylpiperazin-1-yl)azetidin-1-yl)-6-(2-methyl-1-oxa-8-azaspiro[4.5]dec-3-en-8-yl)-2-(trifluoromethyl)nicotinonitrile] | 1280 |
| C=CC(=O)N1CCN(C2CN(c3cc(N4CCC5(CC4)CC(C)(C)CO5)nc(C(F)(F)F)c3C#N)C2)CC1 [Compound 3-045, 4-(3-(4-acryloylpiperazin-1-yl)azetidin-1-yl)-6-(3,3-dimethyl-1-oxa-8-azaspiro[4.5]decan-8-yl)-2-(trifluoromethyl)nicotinonitrile] | 6350 |
| C=CC(=O)N1CCN(C2CN(c3cc(N4CCC5(CC4)OC(C)C=C5Cl)nc(C(F)(F)F)c3C#N)C2)CC1 (stereo not shown) [Compound 3-065, 4-(3-(4-Acryloylpiperazin-1-yl)azetidin-1-yl)-6-(4-chloro-2-methyl-1-oxa-8-azaspiro[4.5]dec-3-en-8-yl)-2-(trifluoromethyl)nicotinonitrile] | 752 |
| C=CC(=O)N1CCN(C2CN(c3cc(N4CCC5(C=CCOC5)CC4)nc(C(F)F)c3C)C2)CC1 [Compound 3-072, 1-(4-(1-(2-(difluoromethyl)-3-methyl-6-(2-oxa-9-azaspiro[5.5]undec-4-en-9-yl)pyridin-4-yl)azetidin-3-yl)piperazin-1-yl)prop-2-en-1-one] | 4900 |
| C=CC(=O)N1CCN(C2(C)CN(c3cc(N4CCC5(CC4)OCc4ccccc45)nc(C(F)(F)F)n3)C2)CC1 [Compound 3-027, 1-(4-(1-(6-(3H-spiro[isobenzofuran-1.4′-piperidin]-1′-yl)-2-(trifluoromethyl)pyrimidin-4-yl)-3-methylazetidin-3-yl)piperazin-1-yl)prop-2-en-1-one] | 6150 |
| C=CC(=O)N1CCN([C@@H]2CN(c3cc(N4CCC5(CC4)COc4nccc(C)c45)nc(C(F)(F)F)n3)[C@@H]2C)CC1 [Compound 3-092, 1-(4-((2R,3R)-2-methyl-1-(6-(4-methyl-1′H-spiro[furo[2,3-b]pyridine-3,4′-piperidin]-1′-yl)-2-(trifluoromethyl)-4-pyrimidinyl)-3-azetidinyl)-1-piperazinyl)-2-propen-1-one] | 2400 |
| C=CC(=O)N1CCN([C@@H]2CN(c3cc(N4CCC5(C=CCOC5)CC4)nc(C(F)(F)F)n3)[C@@H]2C)CC1 [Compound 3-021, 1-(4-((2R,3R)-1-(6-(2-Oxa-9-azaspiro[5.5]undec-4-en-9-yl)-2-(trifluoromethyl)pyrimidin-4-yl)-2-methylazetidin-3-yl)piperazin-1-yl) prop-2-en-1-one] | 3860 |
| C=CC(=O)N1CCN(C2CN(c3cc(N4CCC5(CC4)COc4ccccc45)nc(C(F)(F)F)n3)C2)CC1 [Compound 3-018, 1-(4-(1-(6-(2H-spiro[benzofuran-3,4′-piperidin]-1′-yl)-2-(trifluoro-methyl)pyrimidin-4-yl)azetidin-3-yl)piperazin-1-yl)prop-2-en-1-one] | 1980 |
| C=CC(=O)N1CCN(C2CN(c3cc(N4CCC5(CCCCO5)CC4)nc(C(F)(F)F)c3C#N)C2)CC1 [Compound 3-035, 4-(3-(4-acryloylpiperazin-1-yl)azetidin-1-yl)-6-(1-oxa-9-azaspiro[5.5]undecan-9-yl)-2-(trifluoromethyl)nicotinonitrile] | 3580 |
| C=CC(=O)N1CCN(C2CN(c3cc(N4CCC5(CC4)CC(F)(F)C5)nc(C(F)(F)F)c3C#N)C2)CC1 [Compound 3-037, 4-(3-(4-acryloylpiperazin-1-yl)azetidin-1-yl)-6-(2,2-difluoro-7-azaspiro[3.5]nonan-7-yl)-2-(trifluoromethyl)nicotinonitrile] | 3300 |
| C=CC(=O)N1CCN([C@@H]2CN(c3cc(N4CCC5(CC4)OCC=C5C)nc(C(F)F)n3)[C@@H]2C)CC1 [Compound 3-050, 1-(4-((2R,3R)-1-(2-(Difluoromethyl)-6-(4-methyl1-oxa-8-azaspiro[4.5]dec3-en-8-yl)pyrimidin-4-yl)-2-methylazetidin-3-yl)piperazin-1-yl)prop2-en-1-one] | 825 |
| C=CC(=O)N1CCN([C@@H]2CN(c3cc(N4CCC5(C[C@@H]4C)OCC=C5C)nc(C(F)(F)F)n3)[C@@H]2C)CC1 (stereo partly drawn) [Compound 3-006, 1-(4-((2R,3R)-1-(6-(4,7-dimethyl-1-oxa-8-azaspiro[4.5]dec-3-en-8-yl)-2-(trifluoromethyl)pyrimidin-4-yl)-2-methylazetidin-3-yl)piper-azin-1-yl)prop-2-en-1-one] | 2240 |
| C=CC(=O)N1CCN([C@@H]2CN(c3cc(N4CCC5(CC4)OCCC=C5C)nc(C(F)F)n3)[C@@H]2C)CC1 [Compound 3-009, 1-(4-((2R,3R)-1-(2-(difluorometh-yl)-6-(5-methyl-1-oxa-9-azaspiro [5.5]undec-4-en-9-yl)-pyrimidin-4-yl)-2-methylazetidin-3-yl)piper-azin-1-yl)prop-2-en-1-one] | 884 |
| C=CC(=O)N1CCN([C@@H]2CN(c3cc(N4CCC5(CC4)CC5CN4CCCC4)nc(C(F)(F)F)n3)[C@@H]2C)CC1 (stereo partly drawn) [Compound 3-023, 1-(4-((2R,3R)-2-methyl-1-(6-(1-(pyrrolidin-1-ylmethyl)-6-azaspiro[2.5]octan-6-yl)-2-(trifluoromethyl)pyrimidin-4-yl)azetidin-3-yl)piperazin-1-yl)prop-2-en-1-one] | 7270 |
| C=CC(=O)N1CCN([C@@H]2CN(c3cc(N4CCC5(C=CCO5)CC4)nc(C(F)(F)F)c3C#N)[C@@H]2C)CC1 [Compound 3-010, 4-((2R,3R)-3-(4-acryloylpiperazin-1-yl)-2-methylazetidin-1-yl)-6-(1-oxa-8-azaspiro[4.5]dec-3-en-8-yl)-2-(trifluoromethyl)nicotinonitrile] | 660 |
| C=CC(=O)N1CCN([C@@H]2CN(c3cc(N4CCC5(CCC(=O)N5C)CC4)nc(C(F)(F)F)n3)[C@@H]2C)CC1 [Compound 3-020, 8-(6-((2R,3R)-3-(4-Acryloylpiperazin-1-yl)-2-methylazetidin-1-yl)-2-(trifluoromethyl)pyrimidin-4-yl)-1-methyl-1,8-diazaspiro[4.5]decan-2-one] | 1600 |
| C=CC(=O)N1CCN([C@@H]2CN(c3cc(N4CCC5(C[C@@H]4C)OCC=C5C)nc(C(F)F)n3)[C@@H]2C)CC1 (stereo partly drawn) [Compound 3-007, 1-(4-((2R,3R)-1-(2-(difluorometh-yl)-6-(4.7-dimethyl-1-oxa-8-aza-spiro[4.5]dec-3-en-8-yl)pyrimidin-4-yl)-2-methyl-azetidin-3-yl)piper-azin-1-yl)-prop-2-en-1-one] | 6570 |
| C=CC(=O)N1CCN([C@@H]2CN(c3cc(N4CC[C@@]5(CC4C)OCCc4ncsc45)nc(C(F)(F)F)n3)[C@@H]2C)CC1 (single isomer, unassigned) [Compound 3-091-2] | 883 |
| C=CC(=O)N1CCN(C2CN(c3cc(N4CCC5(CC4)CC(C)(O)CO5)nc(C(F)(F)F)c3C#N)C2)CC1 (stereo not shown) [Compound 3-029, 4-(3-(4-acryloylpiperazin-1-yl)azetidin-1-yl)-6-(3-hydroxy-3-methyl-1-oxa-8-azaspiro[4.5]decan-8-yl)-2-(trifluoromethyl)nicotinonitrile] | 8680 |
| C=CC(=O)N1CCN([C@@H]2CN(c3cc(N4CCC5(CC4)C(F)(F)C54CC4)nc(C(F)(F)F)n3)[C@@H]2C)CC1 [Compound 3-022, 1-(4-((2R,3R)-1-(6-(10.10-difluoro-7-azadispiro[2.0.5^4.1^3]decan-7-yl)-2-(trifluoromethyl)pyrimidin-4-yl)-2-methylazetidin-3-yl)piperazin-1-yl)prop-2-en-1-one] | 5610 |
| C=CC(=O)N1CCN(C2CN(c3cc(N4CCC5(CC4)OC(=O)NC54CCC4)nc(C(F)(F)F)c3C#N)C2)CC1 [Compound 3-034, 4-(3-(4-acryloylpiperazin-1-yl)azetidin-1-yl)-6-(12-oxo-11-oxa-8,13-diazadispiro[3.0.55.34]tridecan-8-yl)-2-(trifluoromethyl)nicotinonitrile] | 2450 |
